The text below walks through data of patent US7989471B2, “Macrocyclic inhibitors of hepatitis C virus” (Tibotec Pharmaceuticals Ltd., priority 2005, dated 2011).

Data set [1] has as its system HCV replicons (NS3-NS5B regions of HCV type Ib) in Huh-7 luc/neo cells. Description: HCV replicon assay (Huh-Luc luciferase reporter). Format: cell-based. Conditions: Hepatitis C virus, Huh-7, 72 h; Huh-Luc replicon cells, three days incubation, luciferase activity; read-out: EC50. As to the method: The in vitro antiviral activity against HCV of the compounds of formula (I) was tested in a cellular HCV replicon system based on Lohmann et al. (1999) Science 285:110-113, with the further modifications described by Krieger et al. (2001) Journal of Virology 75: 4614-4624, which is further exemplified in the examples section. This model, while not a complete infection model for HCV, is widely accepted as the most robust and efficient model of autonomous HCV RNA replication currently available. […] It will be appreciated that it is important to distinguish between compounds that specifically interfere with HCV functions from those that exert cytotoxic or cytostatic effects in the HCV replicon model, and as a consequence cause a decrease in HCV RNA or linked reporter enzyme concentration. Assays are known in the field for the evaluation of cellular cytotoxicity based for example on the activity of mitochondrial enzymes using fluorogenic redox dyes such as resazurin. Furthermore, cellular counter screens exist for the evaluation of non-selective inhibition of linked reporter gene activity, such as firefly luciferase. Appropriate cell types can be equipped by stable transfection with a luciferase reporter gene whose expression is dependent on a constitutively active gene promoter, and such cells can be used as a counter-screen to eliminate non-selective inhibitors.
The compounds of formula (I) were examined for activity in the inhibition of HCV RNA replication in a cellular assay. […] The cellular assay was based on a bicistronic expression construct, as described by Lohmann et al. (1999) Science vol. 285 pp. 110-113 with modifications described by Krieger et al. (2001) Journal of Virology 75: 4614-4624, in a multi-target screening strategy. In essence, the method was as follows.
The assay utilized the stably transfected cell line Huh-7 luc/neo (hereafter referred to as Huh-Luc). This cell line harbors an RNA encoding a bicistronic expression construct comprising the wild type NS3-NS5B regions of HCV type Ib translated from an Internal Ribosome Entry Site (IRES) from encephalomyocarditis virus (EMCV), preceded by a reporter portion (FfL-luciferase), and a selectable marker portion (neo^R, neomycine phosphotransferase). The construct is bordered by 5′ and 3′ NTRs (non-translated regions) from HCV type Ib. Continued culture of the replicon cells in the presence of G418 (neo^R) is dependent on the replication of the HCV RNA. The stably transfected replicon cells that express HCV RNA, which replicates autonomously and to high levels, encoding inter alia luciferase, are used for screening the antiviral compounds.
The replicon cells were plated in 384 well plates in the presence of the test and control compounds which were added in various concentrations. Following an incubation of three days, HCV replication was measured by assaying luciferase activity (using standard luciferase assay substrates and reagents and a Perkin Elmer ViewLux™ ultraHTS microplate imager). Replicon cells in the control cultures have high luciferase expression in the absence of any inhibitor. The inhibitory activity of the compound on luciferase activity was monitored on the Huh-Luc cells, enabling a dose-response curve for each test compound.
For orientation: Replicon systems follow genome replication, usually without infectious particles.

Data set [2] is described as follows: In vitro metabolic blocking by ritonavir in human liver microsomes. To be noted: 3 μM test compound, human liver microsomes 1 mg/ml, 37° C., % of initial concentration. In kind it is in vitro ADME. As to the method: Compound nr 11 of Table 1 was tested in a metabolic blocking experiment using 3 μM test compound together with 10 μM ritonavir acting as booster.
The test compound and ritonavir were added to human liver microsomes (protein concentration 1 mg/ml) suspended in potassium phosphate buffer (pH=7.4), to get final reaction mixture concentrations of 3 μM test compound and 10 μM ritonavir. In the non-boosted parallel reactions, ritonavir was not added. Boiled human liver microsomes were used for blank experiments. After addition (in a 1:3 ratio) of a cofactor mixture consisting of β-nicotinamide adenine dinucleotide phosphate (β-NADP, 0.5 mg/ml, 653.2 μM), D-Glucose-6-phosphate (2 mg/ml, 7.1 mM), Glucose-6-phosphate dehydrogenase (1.5 U/ml) in 2% NaHCO3, the reaction mixture was incubated at 37° C. for 30 or 120 minutes after which the reaction was stopped by increasing the temperature to 95° C. Test compound concentrations were determined using HPLC-MS.
Values are percentages of the test compound detected after the indicated incubation times as compared to the initial test compound concentration. Each value is the mean of the results of two independent experiments.
In general terms: Liver microsomes are vesicles of endoplasmic reticulum, rich in cytochrome P450 enzymes.

In general, EC50 refers to the midpoint of the concentration-response curve. As for `COc1ccc2c(O[C@@H]3C[C@H]4C(=O)N[C@]5(C(=O)NS(=O)(=O)C6CC6)C[C@H]5/C=C\CCCCCCC(=O)N4C3)nc(-n3cccn3)cc2c1` [Compound 34, N-[18-[6-methoxy-3-(pyrazol-1-yl)isoquinolin-1-yloxy]-2,15-dioxo-3,16-diazatricyclo[14.3.0.0^4,6]nonadec-7-ene-4-carbonyl](cyclopropyl)-sulfonamide], in data set [1], the EC50 came out at 40 nM.
Turning to `COc1ccc2c(O[C@@H]3C[C@H]4C(=O)N[C@]5(C(=O)NS(=O)(=O)C6CC6)C[C@H]5/C=C\CCCCCCC(=O)N4C3)cc(-c3nc(C(C)C)cs3)nc2c1` [Compound 11, N-[[18-[2-[4-(isopropyl)thiazol-2-yl]-7-methoxyquinolin-4-yloxy]-2,15-dioxo-3,16-diazatricyclo[14.3.0.0^4,6]nonadec-7-en-4-yl]carbonyl](cyclopropyl)sulfonamide], the EC50 in data set [1] stood at 17 nM. Moreover, the “% Detected Compound” value is 28% in data set [2] (30′ incubation, No Booster); 79% in data set [2] (30′ incubation, with 10 μM ritonavir); 0% in data set [2] (120′ incubation, No Booster); 91% in data set [2] (120′ incubation, with 10 μM ritonavir).
Turning to `COc1ccc2c(O[C@@H]3C[C@H]4C(=O)N[C@]5(C(=O)O)C[C@H]5/C=C\CCCCCCC(=O)N4C3)cc(-c3nccs3)nc2c1` [Compound 31, 18-[7-methoxy-2-(thiazol-2-yl)quinolin-4-yloxy]-2,15-dioxo-3,16-diazatricyclo[14.3.0.0^4,6]nonadec-7-ene-4-carboxylic acid], the EC50 in data set [1] worked out at 4940 nM.
With `COc1ccc2c(O[C@@H]3C[C@H]4C(=O)N[C@]5(C(=O)O)C[C@H]5/C=C\CCCCCCC(=O)N4C3)cc(-c3nc(C(C)C)cs3)nc2c1` [Compound 10, 18-[2-[4-(isopropyl)thiazol-2-yl]-7-methoxyquinolin-4-yloxy]-2,15-dioxo-3,16-diazatricyclo[14.3.0.0^4,6]nonadec-7-ene-4-carboxylic acid], the EC50 in data set [1] came out at 5040 nM.
On the same count and under the same terms, the value for `COc1ccc2c(O[C@@H]3C[C@H]4C(=O)N[C@]5(C(=O)NS(=O)(=O)C6CC6)C[C@H]5/C=C\CCCCCC(=O)N4C3)cc(-c3nc(C(C)C)cs3)nc2c1C` [Compound 59, N-[17-[2-(4-isopropylthiazol-2-yl)-7-methoxy-8-methylquinolin-4-yloxy]-2,14-dioxo-3,15-diazatricyclo[13.3.0.0^4,6]octadec-7-ene-4-carbonyl]-(cyclopropyl)sulfonamide] was 3 nM.
Still for that read-out and setting: the value for `COc1ccc2c(O[C@@H]3C[C@H]4C(=O)N[C@]5(C(=O)NS(=O)(=O)C6CC6)C[C@H]5/C=C\CCCCCCC(=O)N4C3)cc(-c3csc(NC(C)C)n3)nc2c1` [Compound 13, N-[[18-[2-[2-(isopropylamino)thiazol-4-yl]-7-methoxyquinolin-4-yloxy]-2,15-dioxo-3,16-diazatricyclo[14.3.0.0^4,6]nonadec-7-en-4-yl]carbonyl](cyclopropyl)sulfonamide] was 20 nM; that for `COc1ccc2c(O[C@@H]3C[C@H]4C(=O)N[C@]5(C(=O)NS(=O)(=O)C6CC6)C[C@H]5/C=C\CCCCCCC(=O)N4C3)cc(-c3cscn3)nc2c1` [Compound 36, N-[18-[7-methoxy-2-(thiazol-4-yl)quinolin-4-yloxy]-2,15-dioxo-3,16-diazatricyclo[14.3.0.0^4,6]nonadec-7-ene-4-carbonyl](cyclopropyl)-sulfonamide] was 4 nM.
